Source: patent US8173606B2, “Sulfated oligosaccharide derivatives” (Progen Pharmaceuticals Limited, priority 2004, dated 2012)

What was measured:
[1] = test system: herpes simplex virus (HSV-1) KOS321 strain; experiment: Antiviral assay, HSV-1 infectivity (plaque forming units); assay type: cell-based; conditions: African green monkey kidney cells; virus pre-incubated with compound 10 min
Text: (§1) In panel A, the results are expressed as a percentage of the number of viral plaque forming units (PFU) formed in cells infected with the compound-treated virions relative to mock-treated controls. In panel B, the results are expressed as a percentage of the average area of 20 viral plaques formed in the continuous presence of compound relative to mock-treated control cells. Monolayer cultures of African green monkey kidney cells[35] and herpes simplex virus (HSV-1) KOS321 strain[36] were used throughout. The antiviral assays on the compounds were performed as described by Nyberg et al.[13] Briefly, the effects of the compounds on the infection of cells by exogenously added virus were tested by mixing serial fivefold dilutions of compound (at 0.032-20 μM) with approximately 200 plaque forming units of the virus. Following incubation of the virus and compound for 10 min at room temperature, the mixture was added to the cells and left on the cell monolayer for 2 h at 37° C. Subsequently, the inoculum was aspirated and replaced with an overlay medium of 1% methylcellulose solution in Eagle's minimum essential medium (EMEM). The viral plaques that developed after incubation of cells for 3 days at 37° C. were stained with 1% crystal violet solution and counted. The effects of the compounds on cell-to-cell spread of HSV-1 were tested by adding serial fivefold dilutions of compound (at 0.032-20 μM) in the serum-free overlay medium to cells after their infection with HSV-1. After incubation of the compound with the cells for 3 days at 37° C., the images of 20 plaques were captured and subjected to area determination using IM500 software (Leica).

VEGF = biological target: T1, VEGF (Homo sapiens, UniProt P15692); experiment: SPR based solution affinity assay, growth factor binding (VEGF); conditions: heparin-coated sensorchip, HBS-EP buffer, 25° C.
T1 sequence (P15692 27-191 isoform P15692-4): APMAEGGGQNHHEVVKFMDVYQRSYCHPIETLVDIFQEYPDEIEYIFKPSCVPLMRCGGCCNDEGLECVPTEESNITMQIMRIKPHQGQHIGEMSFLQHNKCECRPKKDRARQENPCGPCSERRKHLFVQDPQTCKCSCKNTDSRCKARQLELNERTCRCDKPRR
Procedure: Binding affinities of ligands for the growth factors FGF-1, FGF-2 and VEGF were measured using a surface plasmon resonance (SPR) based solution affinity assay. The principle of the assay is that heparin immobilised on a sensorchip surface distinguishes between free and bound growth factor in an equilibrated solution of the growth factor and a ligand. Upon injection of the solution, the free growth factor binds to the immobilised heparin, is detected as an increase in the SPR response and its concentration thus determined. A decrease in the free growth factor concentration as a function of the ligand concentration allows for the calculation of the dissociation constant, Kd. It is important to note that ligand binding to the growth factors can only be detected when the interaction involves the HS binding site, thus eliminating the chance of evaluating non-specific binding to other sites on the protein. A 1:1 stoichiometry has been assumed for all protein:ligand interactions.
For the testing of growth factor binding activity, heparin-coated sensorchips were used. Their preparation, via immobilisation of biotinylated BSA-heparin on a streptavidin-coated sensorchip, has been described.[5] Heparin has also been immobilised via aldehyde coupling using either adipic acid dihydrazide or 1,4-diaminobutane. […] Ligands binding to FGF-1 and VEGF were measured in HBS-EP buffer (10 mM HEPES, pH 7.4, 150 mM NaCl, 3.0 mM EDTA and 0.005% (v/v) polysorbate 20), while binding to FGF-2 was measured in HBS-EP buffer containing 0.3 M NaCl.[5] […] For each assay mixture, 50-200 μL of solution was injected at 5-40 μL/min and the relative binding response measured. […]
Sensorgram data were analysed using the BIAevaluation software (BIAcore). […]
[formula] and the binding equation[5] can be expressed as
The Kd values given are the values fit, using the binding equation, to a plot of [P] versus [L]total. Where Kd values were measured in duplicate, the values represent the average of the duplicate measurements. […]

[2] = test system: herpes simplex virus (HSV-1) KOS321 strain; experiment: Antiviral assay, HSV-1 cell-to-cell spread (plaque area); assay type: cell-based; conditions: African green monkey kidney cells; compound in overlay medium after infection, 3 days
Text: as §1

Substance	IC50 [1] [nM]	Kd (VEGF) [nM]	IC50 [2] [nM]
Benzyl Glycoside Polysulfate [PG500]	2000	1.72 ± 0.19	1000
Octyl Glycoside Polysulfate [PG501]	1000	1.67 ± 0.11	400
